Active and inactive are the calls of the source. How the calls were made is not given here.

This data set relates to CCRIS mutagenicity, Ames/micronucleus/aberration tests. Put plainly: CCRIS mutagenicity studies.
Setting [1] is: Test System: AMES SALMONELLA TYPHIMURIUM, Strain/Indicator: TA100, Metabolic Activation: NONE, Method: STANDARD PLATE.
The mark [2] stands for this setting: Test System: AMES SALMONELLA TYPHIMURIUM, Strain/Indicator: TA98, Metabolic Activation: NONE, Method: PREINCUBATION
Where [3] appears, read: Test System: AMES SALMONELLA TYPHIMURIUM, Strain/Indicator: TA100, Metabolic Activation: NONE, Method: PREINCUBATION
Where [4] appears, read: Test System: MOUSE LYMPHOMA, Strain/Indicator: L5178Y (TK+/TK-), Metabolic Activation: RAT, LIVER, S-9, AROCLOR 1254, Method: SUSPENSION/PLATE.

As for `CC(C)NCC(O)COc1cccc2[nH]c3ccccc3c12` (configuration not stated), the mutagenic call is, setting by setting: (Test System: AMES SALMONELLA TYPHIMURIUM, Strain/Indicator: TA98, Metabolic Activation: NONE, Method: STANDARD PLATE) “inactive; negative”; (Test System: AMES SALMONELLA TYPHIMURIUM, Strain/Indicator: TA98, Metabolic Activation: RAT, LIVER, S-9, AROCLOR 1254, Method: STANDARD PLATE) “inactive; negative”; under setting [1], “inactive; negative”; (Test System: AMES SALMONELLA TYPHIMURIUM, Strain/Indicator: TA100, Metabolic Activation: RAT, LIVER, S-9, AROCLOR 1254, Method: STANDARD PLATE) “inactive; negative”.
`O=C(Cl)Cc1ccccc1`: the mutagenic call was “active; positive” under setting [2]; “active; positive” (Test System: AMES SALMONELLA TYPHIMURIUM, Strain/Indicator: TA98, Metabolic Activation: RAT LIVER S-9, PCB, Method: PREINCUBATION); “active; positive” under setting [3]; “active; positive” (Test System: AMES SALMONELLA TYPHIMURIUM, Strain/Indicator: TA100, Metabolic Activation: RAT LIVER S-9, PCB, Method: PREINCUBATION); “active; positive” (Test System: AMES SALMONELLA TYPHIMURIUM, Strain/Indicator: TA104, Metabolic Activation: NONE, Method: PREINCUBATION); “active; positive” (Test System: AMES SALMONELLA TYPHIMURIUM, Strain/Indicator: TA104, Metabolic Activation: RAT LIVER S-9, PCB, Method: PREINCUBATION). Further, the mutagenic call (Test System: E.COLI, Strain/Indicator: WP2 UVRA, Metabolic Activation: NONE, Method: PREINCUBATION) was “active; positive” and the mutagenic call (Test System: E.COLI, Strain/Indicator: WP2 UVRA, Metabolic Activation: RAT LIVER S-9, PCB, Method: PREINCUBATION) was “active; positive”.
Turning to `OCc1ccccc1`, the mutagenic call is, setting by setting: (End Point: IN VIVO MICRONUCLEUS, Test System: BONE MARROW POLYCHROMATIC ERYTHROCYTES, Species: MOUSE, Strain/Sex: DDY/MALE, Route: IP) “inactive; negative”; (Test System: AMES SALMONELLA TYPHIMURIUM, Strain/Indicator: TA97, Metabolic Activation: NONE, Method: PREINCUBATION) “inactive; negative”; (Test System: AMES SALMONELLA TYPHIMURIUM, Strain/Indicator: TA97, Metabolic Activation: RAT, LIVER, S-9, AROCLOR 1254, Method: PREINCUBATION) “inactive; negative”; (Test System: AMES SALMONELLA TYPHIMURIUM, Strain/Indicator: TA98, Metabolic Activation: HAMSTER, LIVER, S-9, AROCLOR 1254, Method: PREINCUBATION) “inactive; negative”; under setting [2], “inactive; negative”; (Test System: AMES SALMONELLA TYPHIMURIUM, Strain/Indicator: TA98, Metabolic Activation: RAT, LIVER, S-9, AROCLOR 1254, Method: PREINCUBATION) “inactive; negative”. The mutagenic call is “inactive; negative” (Test System: AMES SALMONELLA TYPHIMURIUM, Strain/Indicator: TA100, Metabolic Activation: HAMSTER, LIVER, S-9, AROCLOR 1254, Method: PREINCUBATION); “inactive; negative” under setting [3]; “inactive; negative” under setting [1]; “inactive; negative” (Test System: AMES SALMONELLA TYPHIMURIUM, Strain/Indicator: TA100, Metabolic Activation: RAT, LIVER, S-9, AROCLOR 1254, Method: PREINCUBATION); “inactive; negative” (Test System: AMES SALMONELLA TYPHIMURIUM, Strain/Indicator: TA102, Metabolic Activation: NONE, Method: PREINCUBATION); “inactive; negative” (Test System: AMES SALMONELLA TYPHIMURIUM, Strain/Indicator: TA102, Metabolic Activation: RAT, LIVER, S-9, AROCLOR 1254, Method: PREINCUBATION). In addition, the mutagenic call (Test System: AMES SALMONELLA TYPHIMURIUM, Strain/Indicator: TA1535, Metabolic Activation: HAMSTER, LIVER, S-9, AROCLOR 1254, Method: PREINCUBATION) was “inactive; negative”; the mutagenic call (Test System: AMES SALMONELLA TYPHIMURIUM, Strain/Indicator: TA1535, Metabolic Activation: NONE, Method: PREINCUBATION) is “inactive; negative”; the mutagenic call (Test System: AMES SALMONELLA TYPHIMURIUM, Strain/Indicator: TA1535, Metabolic Activation: RAT, LIVER, S-9, AROCLOR 1254, Method: PREINCUBATION) is “inactive; negative”; the mutagenic call (Test System: AMES SALMONELLA TYPHIMURIUM, Strain/Indicator: TA1537, Metabolic Activation: HAMSTER, LIVER, S-9, AROCLOR 1254, Method: PREINCUBATION) was “inactive; negative”; the mutagenic call (Test System: AMES SALMONELLA TYPHIMURIUM, Strain/Indicator: TA1537, Metabolic Activation: NONE, Method: PREINCUBATION) was “inactive; negative”; the mutagenic call (Test System: AMES SALMONELLA TYPHIMURIUM, Strain/Indicator: TA1537, Metabolic Activation: RAT, LIVER, S-9, AROCLOR 1254, Method: PREINCUBATION) is “inactive; negative”. Also, the mutagenic call is “inactive; negative” (Test System: Ames Salmonella typhimurium, Strain/Indicator: TA98, Metabolic Activation: None, Method: Direct plate incorporation); “inactive; negative” (Test System: Ames Salmonella typhimurium, Strain/Indicator: TA98, Metabolic Activation: Rat, liver, S-9, Aroclor 1254, Method: Direct plate incorporation); “inactive; negative” (Test System: Ames Salmonella typhimurium, Strain/Indicator: TA100, Metabolic Activation: None, Method: Direct plate incorporation); “inactive; negative” (Test System: Ames Salmonella typhimurium, Strain/Indicator: TA100, Metabolic Activation: Rat, liver, S-9, Aroclor 1254, Method: Direct plate incorporation); “inactive; negative” under setting [4].
Consider `C1O[C@@H]1[C@H]1CO1`, for which the mutagenic call was “active; positive (structural changes)” (End Point: IN VITRO CHROMOSOMAL ABERRATIONS, Test System: HUMAN PERIPHERAL LYMPHOCYTES, Metabolic Activation: NONE, Method: FISH (CHROMOSOME PAINTING)); “inactive; positive (d 1 -2); positive at both dose levels on d 2 (negative by d 3)” (End Point: IN VIVO MICRONUCLEUS, Test System: PERIPHERAL BLOOD RETICULOCYTES, Species: MOUSE, Strain/Sex: BALB/C/MALE, Route: IP INJECTION, ONCE); “active; positive” (End Point: IN VIVO MICRONUCLEUS, Test System: SPERMATID, Species: RAT, Strain/Sex: SPRAGUE-DAWLEY/MALE, Route: IP INJECTION); “active; positive (at 30 mg at 3 d after exposure)” (End Point: IN VIVO MICRONUCLEUS, Test System: SPERMATIDS, Species: MOUSE, Strain/Sex: (102XC3H)F1/MALE, Route: IP INJECTION); “active; positive” (End Point: IN VIVO MICRONUCLEUS, Test System: SPERMATIDS, Species: MOUSE, Strain/Sex: BALB/C/MALE, Route: IP INJECTION); “active; positive” (End Point: IN VIVO MICRONUCLEUS, Test System: SPERMATIDS, Species: RAT, Strain/Sex: LEWIS/MALE, Route: IP INJECTION). The mutagenic call was “active; positive” (End Point: IN VIVO MICRONUCLEUS, Test System: SPLENOCYTES, Species: MOUSE, Strain/Sex: (102XC3H)F1/MALE, Route: IP INJECTION); “active; positive” (End Point: IN VIVO MICRONUCLEUS, Test System: SPLENOCYTES, Species: RAT, Strain/Sex: LEWIS/MALE, Route: IP INJECTION); “active; positive” under setting [1]; “active; positive” (Test System: AMES SALMONELLA TYPHIMURIUM, Strain/Indicator: TA1535, Metabolic Activation: NONE, Method: STANDARD PLATE); “active; positive” (Test System: CHINESE HAMSTER OVARY, Strain/Indicator: AS52/6-THIOGUANINE, Metabolic Activation: NONE); “active; positive” (Test System: MOUSE LYMPHOMA, Strain/Indicator: L5178Y (TK+/TK-), Metabolic Activation: NONE, Method: SUSPENSION/PLATE). For the same compound, the mutagenic call is “active; positive” under setting [4]; “active; positive” (Test System: MOUSE LYMPHOMA, Strain/Indicator: L5178Y (TK+/TK-), Metabolic Activation: RAT, LIVER, S-9, Method: SUSPENSION/PLATE); “active; positive” (Test System: UDS MOUSE SPERM CELLS, Strain/Indicator: THY INCORP, Metabolic Activation: IN VIVO, Method: LIQUID SCINTILLATION COUNTING).
Regarding `CC(=O)ON(C(C)=O)c1ccc(/C=C\c2ccccc2)cc1`, the mutagenic call reads like this: (Test System: UDS HUMAN CELLS, Strain/Indicator: THY INCORP (NON-S-PHASE), Metabolic Activation: NONE, Method: LIQUID SCINTILLATION COUNTING) “active; positive”; (Test System: UDS HUMAN FIBROBLASTS, Strain/Indicator: THY INCORP (NON-S-PHASE), Metabolic Activation: NONE, Method: AUTORADIOGRAPHY) “active; positive”.
